The test has as its target T1, human DGAT2 (hDGAT2) (Homo sapiens, UniProt Q96PD7).
T1 construct: made in house; host or cells: Sf-9 insect cells (baculovirus), membrane fraction
T1 sequence (Q96PD7 1-388): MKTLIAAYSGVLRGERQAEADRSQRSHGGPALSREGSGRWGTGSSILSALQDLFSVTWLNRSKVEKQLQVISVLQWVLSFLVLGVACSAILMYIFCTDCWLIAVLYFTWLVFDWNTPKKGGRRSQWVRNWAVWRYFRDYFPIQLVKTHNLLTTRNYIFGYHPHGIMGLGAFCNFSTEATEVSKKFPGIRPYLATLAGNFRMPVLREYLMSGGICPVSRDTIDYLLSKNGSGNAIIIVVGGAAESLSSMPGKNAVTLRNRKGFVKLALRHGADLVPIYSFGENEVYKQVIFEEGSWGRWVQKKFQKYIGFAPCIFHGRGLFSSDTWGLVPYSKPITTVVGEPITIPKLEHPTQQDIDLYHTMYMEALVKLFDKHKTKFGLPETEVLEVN
The test can be described thus: DGAT2 Enzymatic Activity Assay. The following applies: membrane prep of Sf-9 cells expressing hDGAT2; 13C18-triolein product by LC/MS/MS; 25 μM diolein, 5 μM 13C oleoyl-CoA, rt. The test is classed as biochemical. Summed up: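 At room temperature, DGAT2 activity in baculovirus-infected Sf-9 membrane preps (human enzyme, untagged) is measured as formation of ^13C18-triolein. Product is extracted and measured by positive-mode LC/MS/MS, with the ratio to spiked ^13C21-triolein giving inhibition and IC50.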

Experimental findings from patent US20260176267A1, “PREPARATION OF IMIDAZOPYRIDINE AND IMIDAZOPYRIDAZINE DERIVATIVES AS NOVEL DIACYLGLYCERIDE O-ACYLTRANSFERASE 2 INHIBITORS” (Merck Sharp & Dohme LLC, priority 2022, published 2026) are described below.

One may read the IC50 as the concentration needed to halve the response being measured.

Turning to `Cc1cnc(Oc2ccc3nc(C(=O)NC4(C)CCS(=O)(=O)CC4)c(C)n3c2)c(OCC(F)(F)F)c1` [Example 144, 3-methyl-N-(4-methyl-1,1-dioxo-thian-4-yl)-6-[[5-methyl-3-(2,2,2-trifluoroethoxy)-2-pyridyl]oxy]imidazo[1,2-a]pyridine-2-carboxamide], inhibition was half-maximal at 8.9 nM (IC50).
`Cc1c(C(=O)NC2(C)CCS(=O)(=O)CC2)nc2ccc(Oc3ncc(C4CC4)cc3OCC(F)(F)F)cn12` [Example 145, 6-[[5-cyclopropyl-3-(2,2,2-trifluoroethoxy)-2-pyridyl]oxy]-3-methyl-N-(4-methyl-1,1-dioxo-thian-4-yl)imidazo[1,2-a]pyridine-2-carboxamide] showed an IC50 of 133 nM. This IC50 lies about 15-fold higher than the previous one.
`Cc1c(C(=O)NC2(C)CCS(=O)(=O)CC2)nc2ccc(Oc3ncc(C(C)(C)O)cc3OCC(F)(F)F)cn12` [Example 146, 6-[[5-(1-hydroxy-1-methyl-ethyl)-3-(2,2,2-trifluoroethoxy)-2-pyridyl]oxy]-3-methyl-N-(4-methyl-1,1-dioxo-thian-4-yl)imidazo[1,2-a]pyridine-2-carboxamide] gave an IC50 of 102 nM.
`Cc1c(C(=O)NC2(C)CCS(=O)(=O)CC2)nc2ccc(Oc3ncc(C(C)(C)F)cc3OCC(F)(F)F)cn12` [Example 147, 6-[[5-(1-fluoro-1-methyl-ethyl)-3-(2,2,2-trifluoroethoxy)-2-pyridyl]oxy]-3-methyl-N-(4-methyl-1,1-dioxo-thian-4-yl)imidazo[1,2-a]pyridine-2-carboxamide] came in with an IC50 of 41 nM.
`Cc1c(C(=O)NC2(C)CCS(=O)(=O)CC2)nc2ccc(Oc3ncc(O)cc3OCC(F)(F)F)cn12` [Example 148, 6-[[5-hydroxy-3-(2,2,2-trifluoroethoxy)-2-pyridyl]oxy]-3-methyl-N-(4-methyl-1,1-dioxo-thian-4-yl)imidazo[1,2-a]pyridine-2-carboxamide] came in with an IC50 of 80 nM.
With `Cc1c(C(=O)NC2(C)CCS(=O)(=O)CC2)nc2ccc(Oc3ncc(C#N)cc3OCC(F)(F)F)cn12` [Example 149, 6-[[5-cyano-3-(2,2,2-trifluoroethoxy)-2-pyridyl]oxy]-3-methyl-N-(4-methyl-1,1-dioxo-thian-4-yl)imidazo[1,2-a]pyridine-2-carboxamide], half-maximal inhibition (IC50) was put at 33 nM.
In turn, `Cc1c(C(=O)NC2(C)CCS(=O)(=O)CC2)nc2ccc(Oc3ncc(S(C)(=O)=O)cc3OCC(F)(F)F)cn12` [Example 150, 3-methyl-N-(4-methyl-1,1-dioxo-thian-4-yl)-6-[[5-methylsulfonyl-3-(2,2,2-trifluoroethoxy)-2-pyridyl]oxy]imidazo[1,2-a]pyridine-2-carboxamide] registered an IC50 of 58 nM.
`Cc1c(C(=O)NC2(C)CCS(=O)(=O)CC2)nc2ccc(Oc3ncc(C(=O)O)cc3OCC(F)(F)F)cn12` [Example 151, 6-[3-methyl-2-[(4-methyl-1,1-dioxo-thian-4-yl)carbamoyl]imidazo[1,2-a]pyridine-6-yl]oxy-5-(2,2,2-trifluoroethoxy)pyridine-3-carboxylic acid] gave an IC50 of over 9990 nM.
The result for `Cc1c(C(=O)NC2(C)CS(=O)(=O)C2)nc2ccc(Oc3ncc(N(C)C)cc3OCC(F)(F)F)cn12` [Example 152, 6-[5-(dimethylamino)-3-(2,2,2-trifluoroethoxy)pyridine-2-yl]oxy-3-methyl-N-(3-methyl-1,1-dioxo-thietan-3-yl)imidazo[1,2-a]pyridin-1-ium-2-carboxamide] reads 63 nM.
On to `CC1(NC(=O)c2cn3nc(Oc4ncc(Cl)cc4OCC(F)F)ccc3n2)CCS(=O)(=O)CC1` [Example 153, 6-((5-Chloro-3-(2,2-difluoroethoxy)pyridin-2-yl)oxy)-N-(4-methyl-1,1-dioxidotetrahydro-2H-thiopyran-4-yl)imidazo[1,2-b]pyridazine-2-carboxamide], for which the midpoint of inhibition, the IC50, lay at 3.2 nM.
`CC(F)(F)COc1cc(Cl)cnc1Oc1ccc2nc(C(=O)NC3(C)CCS(=O)(=O)CC3)cn2n1` [Example 154, 6-[[5-Chloro-3-(2,2-difluoropropoxy)-2-pyridyl]oxy]-N-(4-methyl-1,1-dioxo-thian-4-yl)imidazo[1,2-b]pyridazine-2-carboxamide] showed an IC50 of 154 nM.
The result for `CC1(NC(=O)c2cn3nc(Oc4ncc(F)cc4OCC4(F)CC4)ccc3n2)CCS(=O)(=O)CC1` [Example 155, 6-[[5-Fluoro-3-[(1-fluorocyclopropyl)methoxy]-2-pyridyl]oxy]-N-(4-methyl-1,1-dioxo-thian-4-yl)imidazo[1,2-b]pyridazine-2-carboxamide] reads 186 nM.
To `CC(F)(F)COc1cc(F)cnc1Oc1ccc2nc(C(=O)NC3(C)CCS(=O)(=O)CC3)cn2n1` [Example 156, 6-[[3-(2,2-Difluoropropoxy)-5-fluoro-2-pyridyl]oxy]-N-(4-methyl-1,1-dioxo-thian-4-yl)imidazo[1,2-b]pyridazine-2-carboxamide] belongs 988 nM.
`CC1(NC(=O)c2cn3nc(Oc4ncc(F)cc4OCC4CC4)ccc3n2)CCS(=O)(=O)CC1` [Example 157, 6-[[3-(Cyclopropylmethoxy)-5-fluoro-2-pyridyl]oxy]-N-(4-methyl-1,1-dioxo-thian-4-yl)imidazo[1,2-b]pyridazine-2-carboxamide] showed an IC50 of 18 nM. Against the preceding compound, the IC50 is about 55-fold lower.
`CC1(NC(=O)c2cn3nc(Oc4ncc(F)cc4OC4CCC4)ccc3n2)CCS(=O)(=O)CC1` [Example 158, 6-[[3-(Cyclobutoxy)-5-fluoro-2-pyridyl]oxy]-N-(4-methyl-1,1-dioxo-thian-4-yl)imidazo[1,2-b]pyridazine-2-carboxamide] showed an IC50 of 590 nM.
`CC1(NC(=O)c2cn3nc(Oc4ncc(Cl)cc4OCC(F)(F)F)ccc3n2)CCS(=O)(=O)CC1` [Example 159, 6-[[5-Chloro-3-(2,2,2-trifluoroethoxy)-2-pyridyl]oxy]-N-(4-methyl-1,1-dioxo-thian-4-yl)imidazo[1,2-b]pyridazine-2-carboxamide] registered an IC50 of 211 nM.
`CC1(NC(=O)c2cn3nc(Oc4ncc(F)cc4OCC(F)F)ccc3n2)CCS(=O)(=O)CC1` [Example 160, 6-[[3-(2,2-Difluoroethoxy)-5-fluoro-2-pyridyl]oxy]-N-(4-methyl-1,1-dioxo-thian-4-yl)imidazo[1,2-b]pyridazine-2-carboxamide] showed an IC50 of 3.9 nM.
To `O=C(N[C@H]1CCCC(F)(F)[C@@H]1O)c1cn2nc(Oc3ncc(Cl)cc3OCC(F)(F)F)ccc2n1` [Example 161, 6-((5-chloro-3-(2,2,2-trifluoroethoxy)pyridin-2-yl)oxy)-N-((1S,2R)-3,3-difluoro-2-hydroxycyclohexyl)imidazo[1,2-b]pyridazine-2-carboxamide] belongs 37 nM; to `CC1(NC(=O)c2cn3nc(Oc4ncc(Cl)cc4OCC(F)(F)F)ccc3n2)CS(=O)(=O)C1` [Example 162, 6-[[5-chloro-3-(2,2,2-trifluoroethoxy)-2-pyridyl]oxy]-N-(3-methyl-1,1-dioxo-thietan-3-yl)imidazo[1,2-b]pyridazine-2-carboxamide], 474 nM; to `CS(=O)(=O)CC1(NC(=O)c2cn3nc(Oc4ncc(Cl)cc4OCC(F)F)ccc3n2)CCC1` [Example 163, 6-[[5-Chloro-3-(2,2-difluoroethoxy)-2-pyridyl]oxy]-N-[1-(methylsulfonylmethyl)cyclobutyl] imidazo[1,2-b]pyridazine-2-carboxamide], 207 nM.
The result for `CC1(NC(=O)c2cn3nc(Oc4ncc(F)cc4OCC(F)(F)F)ccc3n2)CCS(=O)(=O)CC1` [Example 164, 6-[[5-Fluoro-3-(2,2,2-trifluoroethoxy)-2-pyridyl]oxy]-N-(4-methyl-1,1-dioxo-thian-4-yl)imidazo[1,2-b]pyridazine-2-carboxamide] reads 16 nM; that for `CC1(NC(=O)c2cn3nc(Oc4nccnc4OCC(F)(F)F)ccc3n2)CCS(=O)(=O)CC1` [Example 165, N-(4-Methyl-1,1-dioxo-thian-4-yl)-6-[3-(2,2,2-trifluoroethoxy)pyrazin-2-yl]oxy-imidazo[1,2-b]pyridazine-2-carboxamide], 901 nM.
For the compound `Cc1c(C(=O)NC2(C)CCS(=O)(=O)CC2)nc2ccc(Oc3ncc(Cl)cc3OCC(F)F)nn12` [Example 166, 6-((5-Chloro-3-(2,2-difluoroethoxy)pyridin-2-yl)oxy)-3-methyl-N-(4-methyl-1,1-dioxidotetrahydro-2H-thiopyran-4-yl)imidazo[1,2-b]pyridazine-2-carboxamide], half-maximal inhibition (IC50) required 6.8 nM.
In turn, `Cc1c(C(=O)NC2(C)CS(=O)(=O)C2)nc2ccc(Oc3ncc(Cl)cc3OCC(F)F)nn12` [Example 167, 6-((5-chloro-3-(2,2-difluoroethoxy)pyridin-2-yl)oxy)-3-methyl-N-(3-methyl-1,1-dioxidothietan-3-yl)imidazo[1,2-b]pyridazine-2-carboxamide] gave an IC50 of 11 nM.
In the case of `Cc1cc2nc(C(=O)NC3(C)CCS(=O)(=O)CC3)cn2nc1Oc1ncc(Cl)cc1OCC(F)F` [Example 168, 6-((5-Chloro-3-(2,2-difluoroethoxy)pyridin-2-yl)oxy)-7-methyl-N-(4-methyl-1,1-dioxidotetrahydro-2H-thiopyran-4-yl)imidazo[1,2-b]pyridazine-2-carboxamide], the IC50 was determined as 1 nM.
The result for `Cc1cc2nc(C(=O)NC3(C)CS(=O)(=O)C3)cn2nc1Oc1ncc(Cl)cc1OCC(F)F` [Example 169, 6-[[5-chloro-3-(2,2-difluoroethoxy)-2-pyridyl]oxy]-7-methyl-N-(3-methyl-1,1-dioxo-thietan-3-yl)imidazo[1,2-b]pyridazine-2-carboxamide] reads 121 nM.
